Data: ChEMBL document CHEMBL5143595, “Expanding the structure-activity relationship of cytotoxic diphenyl macrocycles” (Bioorg Med Chem Lett, 2022)

Legend:
PC-3 = experiment: Antiproliferative activity against human PC-3 cells assessed as inhibition of cell growth at 10 uM incubated for 48 hrs by SRB assay relative to control; type: functional; set-up: scale not given: the % may be the effect or the level left
U-251 [1] = experiment: Antiproliferative activity against human U-251 cells assessed as inhibition of cell growth at 10 uM incubated for 48 hrs by SRB assay relative to control; type: functional; set-up: scale not given: the % may be the effect or the level left
HCT-15 = experiment: Antiproliferative activity against human HCT-15 cells assessed as inhibition of cell growth at 10 uM incubated for 48 hrs by SRB assay relative to control; type: functional; set-up: scale not given: the % may be the effect or the level left
K562 [2] = experiment: Antiproliferative activity against human K562 cells assessed as inhibition of cell growth at 10 uM incubated for 48 hrs by SRB assay relative to control; type: functional; set-up: scale not given: the % may be the effect or the level left
SK-LU-1 [3] = experiment: Antiproliferative activity against human SK-LU-1 cells assessed as inhibition of cell growth at 10 uM incubated for 48 hrs by SRB assay relative to control; type: functional; set-up: scale not given: the % may be the effect or the level left
[4] = Antiproliferative activity against African green monkey COS-7 cells assessed as inhibition of cell growth at 10 uM incubated for 48 hrs by SRB assay relative to control; type: toxicity, cell-based; conditions: chlorocebus aethiops, read-out: Activity
MCF7 = experiment: Antiproliferative activity against human MCF7 cells assessed as inhibition of cell growth at 10 uM incubated for 48 hrs by SRB assay relative to control; type: functional; set-up: scale not given: the % may be the effect or the level left
SK-LU-1 [5] = experiment: Antiproliferative activity against human SK-LU-1 cells assessed as inhibition of cell growth incubated for 48 hrs by SRB assay; type: functional, cell-based; conditions: SK-LU-1, 48 h
U-251 [6] = experiment: Antiproliferative activity against human U-251 cells assessed as inhibition of cell growth incubated for 48 hrs by SRB assay; type: functional, cell-based; conditions: U-251, 48 h
K562 [7] = experiment: Antiproliferative activity against human K562 cells assessed as inhibition of cell growth incubated for 48 hrs by SRB assay; type: functional, cell-based; conditions: K562, 48 h

IC50 (SK-LU-1 [5]) | IC50 (U-251 [6]) | IC50 (K562 [7]) | Structure (SMILES) | Activity (PC-3) | Activity (U-251 [1]) | Activity (HCT-15) | Activity (K562 [2]) | Activity (SK-LU-1 [3]) | inhibition at 48 h, 10 µM [4] | Activity (MCF7)
 |  |  | CCCCCCCCNC(=O)CN1CCCCN(CC(=O)NC(C)(C)C)C(=O)c2cccc(c2)-c2cccc(c2)C1=O | 46.5% | 20.5% | 26.7% | 24.4% | 9.6% | 19.7% | 31.7%
 |  |  | CCCCCCCCCCCNC(=O)CN1CCCCN(CC(=O)NC(C)(C)C)C(=O)c2cccc(c2)-c2cccc(c2)C1=O | 44.4% | 10.8% | 51% | 42% | 23.2% | 28.1% | 5.3%
 |  |  | CCCCCCNC(=O)CN1CCCCN(CC(=O)NC(C)(C)C)C(=O)c2cccc(c2)-c2cccc(c2)C1=O | 19.3% | 58.5% | 32.4% | 60.1% | 74.9% | 40% | 
 |  |  | CCCCCCCCCCNC(=O)CN1CCCCN(CC(=O)NC(C)(C)C)C(=O)c2cccc(c2)-c2ccc(O)c(c2)C1=O | 19.5% | 49.3% | 28.6% | 55.3% | 27.7% | 41.8% | 27.1%
 |  |  | CCCCCCCCCNC(=O)CN1CCCCN(CC(=O)NC(C)(C)C)C(=O)c2cccc(c2)-c2cccc(c2)C1=O | 66.9% | 16% | 55.1% | 44% | 45.3% | 52.4% | 45.6%
7.6 µM | 5.9 µM | 4 µM | CCCCCCCCCCCCNC(=O)CN1CCCCN(CC(=O)NC(C)(C)C)C(=O)c2cccc(c2)-c2cccc(c2)C1=O |  |  |  |  |  |  | 
 |  |  | CCCCCCCCCCNC(=O)CN1CCCCN(CC(=O)NC(C)(C)C)C(=O)c2cccc(c2)-c2cccc(c2)C1=O | 59.9% | 16.1% | 65.5% | 38% | 50.4% | 17.8% | 72.1%
4.7 µM |  | 8.2 µM | CCCCCCCNC(=O)CN1CCCCN(CC(=O)NC(C)(C)C)C(=O)c2cccc(c2)-c2cccc(c2)C1=O | 97.2% | 99.2% | 77.9% | 79.3% | 88.6% | 7.6% | 70.9%
 |  |  | CCCCCCCCCCCCNC(=O)C(c1ccoc1)N1CCCCN(CC(=O)NC(C)(C)C)C(=O)c2cccc(c2)-c2cccc(c2)C1=O (racemic) | 48.9% | 27.5% | 34.3% | 48.8% | 32.3% | 27.5% | 66.1%
 |  |  | CCCCCCCCCCCCNC(=O)C(c1ccc(SC)cc1)N1CCCCN(CC(=O)NC(C)(C)C)C(=O)c2cccc(c2)-c2cccc(c2)C1=O (racemic) | 28.5% | 20% | 18.3% | 34.9% | 45.6% | 35.5% | 45%
 |  |  | CCCCCCCCCCCCNC(=O)C(c1ccc(O)cc1OC)N1CCCCN(CC(=O)NC(C)(C)C)C(=O)c2cccc(c2)-c2cccc(c2)C1=O (racemic) | 37.6% | 48.5% | 27.3% | 60.9% | 45.1% | 26.1% | 38.9%
 |  |  | CCCCCCCCCCCCNC(=O)C(c1ccc([N+](=O)[O-])cc1)N1CCCCN(CC(=O)NC(C)(C)C)C(=O)c2cccc(c2)-c2cccc(c2)C1=O (racemic) | 17.1% | 34.5% | 22.8% | 29% | 45.2% | 17.5% | 31.2%
 |  |  | CCCCCCCCCCCCNC(=O)C(c1cc(OC)c(OC)c(OC)c1)N1CCCCN(CC(=O)NC(C)(C)C)C(=O)c2cccc(c2)-c2cccc(c2)C1=O (racemic) | 33.9% | 11.4% | 31.5% | 24% | 34.4% | 25.6% | 
 |  |  | CCCCCCCCCCCCNC(=O)C(c1ccccc1)N1CCCCN(CC(=O)NC(C)(C)C)C(=O)c2cccc(c2)-c2cccc(c2)C1=O (racemic) | 32.6% |  | 27.7% | 41.3% | 28.5% | 21.1% | 29.5%
 |  |  | CCCCCCCCCCNC(=O)C(c1ccc(F)cc1)N1CCCCN(CC(=O)NC(C)(C)C)C(=O)c2cccc(c2)-c2cccc(c2)C1=O (racemic) | 15.1% | 19.3% | 67.2% | 64% | 31.8% | 24.3% | 47.3%
 |  |  | CCCCCCCCCCCCNC(=O)C(c1ccc(Cl)cc1)N1CCCCN(CC(=O)NC(C)(C)C)C(=O)c2cccc(c2)-c2cccc(c2)C1=O (racemic) | 14.4% | 71.3% | 24.3% | 42.6% | 52.3% | 42.2% | 72.2%
 |  |  | CCCCCCCCCCCCNC(=O)C(c1ccc(C)cc1)N1CCCCN(CC(=O)NC(C)(C)C)C(=O)c2cccc(c2)-c2cccc(c2)C1=O (racemic) | 21.1% | 48% | 19.9% | 40.7% | 32.4% | 34.8% | 4.8%
 |  |  | CCCCCCCCCCCCNC(=O)C(c1ccco1)N1CCCCN(CC(=O)NC(C)(C)C)C(=O)c2cccc(c2)-c2cccc(c2)C1=O (racemic) | 13.5% | 21.9% | 26.8% | 19.8% | 34.9% | 35.8% | 51.3%
 |  |  | CCCCCCCCCCCCNC(=O)C(c1cc(C)ccc1F)N1CCCCN(CC(=O)NC(C)(C)C)C(=O)c2cccc(c2)-c2cccc(c2)C1=O (racemic) | 9.5% | 15.7% | 31.7% | 29% | 3.1% | 20.2% | 15.2%
 |  |  | CCCCCCCCCCCCNC(=O)C(c1ccc(OC)cc1)N1CCCCN(CC(=O)NC(C)(C)C)C(=O)c2cccc(c2)-c2cccc(c2)C1=O (racemic) | 46.2% | 50.1% | 22% | 56.1% | 37.8% | 33% | 23.6%
 |  |  | CCCCCCCCCCCCNC(=O)C(c1ccc(C(F)(F)F)cc1)N1CCCCN(CC(=O)NC(C)(C)C)C(=O)c2cccc(c2)-c2cccc(c2)C1=O (racemic) | 18.6% | 47.2% | 30.3% | 100% | 76.5% | 38% | 75.3%
 |  |  | CCCCCCCCCCCCNC(=O)C(c1ccc(OC)cc1C)N1CCCCN(CC(=O)NC(C)(C)C)C(=O)c2cccc(c2)-c2cccc(c2)C1=O (racemic) |  | 23.1% | 28% | 5.2% | 29% | 31.3% | 
 |  |  | CCCCCCCCCCCCNC(=O)C(c1ccc(F)cc1)N1CCCCN(CC(=O)NC(C)(C)C)C(=O)c2cccc(c2)-c2cccc(c2)C1=O (racemic) | 21.3% | 76.9% | 42.9% | 59.6% | 18.8% | 40.8% | 41.5%
 |  |  | CCCCCCCCCCNC(=O)C(c1ccoc1)N1CCCCN(CC(=O)NC(C)(C)C)C(=O)c2cccc(c2)-c2cccc(c2)C1=O (racemic) | 35% | 27.5% | 38.5% | 36.6% | 18.8% | 22.8% | 29.5%
 |  |  | CCCCCCCCCCNC(=O)C(c1ccco1)N1CCCCN(CC(=O)NC(C)(C)C)C(=O)c2cccc(c2)-c2cccc(c2)C1=O (racemic) | 25.8% | 25.5% | 26% | 28% | 25.3% | 21.6% | 25.7%
 |  | 11.3 µM | COc1cc([C@@H]2c3cc4c(cc3[C@@H](O[C@@H]3O[C@@H]5CO[C@@H](C)O[C@H]5[C@H](O)[C@H]3O)[C@H]3COC(=O)[C@H]23)OCO4)cc(OC)c1O [ETOPOSIDE] |  |  |  |  |  |  | 
